From patent US20180214428A1, “3-(1H-INDOL-2-YL)-1H-PYRAZOLO[3,4-B]PYRIDINES AND THERAPEUTIC USES THEREOF” (Samumed, LLC, priority 2015, published 2018) come the findings set out here.

Experiment [1] has as its system primary human mesenchymal stem cells (hMSCs). Description: Induction of chondrogenesis in primary human mesenchymal stem cells. The format is cell-based. The following applies: Homo sapiens, Mesenchymal stem cells, 144 h, 6 days; for Emax: chondrogenic nodules, TGF-β3 (10 ng/mL) positive control, read-out: Max. Activity as % TGF-β3 activity; for EC50: concentration required to induce 50% levels of chondrogenesis vs TGF-β3, read-out: Conc (nM) of 50% TGF-β3 activity. The procedure: Representative compounds were screened using primary human mesenchymal stem cells (hMSCs) to determine their ability to induce chondrogenesis (process by which cartilage is developed).
Primary human mesenchymal stem cells (hMSCs) were purchased from Lonza (Walkersville, Md.) and expanded in Mesenchymal Stem Cell Growth Media (Lonza). Cells between passage 3 and 6 were used for the experiments.
Each compound was dissolved in DMSO as a 10 mM stock and used to prepare compound source plates. Serial dilution (1:3, 6-point dose-response curves from 2700 nM to 10 nM) and compound transfer was performed using the ECHO 550 (Labcyte, Sunnyvale, Calif.) into 96-well clear bottom assay plates (Greiner Bio-One) with appropriate DMSO backfill for a final DMSO concentration of 0.03%. hMSCs were plated at 20,000 cells/well in 250 μL/well Incomplete Chondrogenic Induction Medium (Lonza; DMEM, dexamethasone, ascorbate, insulin-transferrin-selenium [ITS supplement], gentamycin-amphotericin [GA-1000], sodium pyruvate, proline and L-glutamine). TGF-β3 (10 ng/mL) was used as a positive control for differentiation while negative control wells were treated with 75 nL DMSO for normalization and calculating EC50 values. Cells were incubated at 37° C. and 5% CO2 for 6 days. To image chondrogenic nodules, the cells were fixed using 4% formaldehyde (Electron Microscopy Sciences), and stained with 2 μg/mL Rhodamine B (Sigma-Aldrich) and 20 μM Nile Red (Sigma-Aldrich) [Johnson K., et. al, A Stem Cell-Based Approach to Cartilage Repair, Science, (2012). 336(6082), 717-721]. The nodules imaged (4 images per well at 4× magnification) by excitation at 531 nm and emission at 625 nm and quantified using the CellInsight CX5 (Thermo Scientific). Number of nodules in each well was normalized to the average of 3 DMSO treated wells on the same plate using Excel (Microsoft Inc.). The normalized averages (fold change over DMSO) of 3 replicate wells for each compound concentration were calculated. Due to solubility limitations of some of the compounds, curve fitting was incomplete leading to inaccurate EC50 determinations.
Using TGF-β3 as a positive control, the concentration of representative compounds required to induce 50% levels of chondrogenesis is reported. In addition, the maximum activity of each compound and the respective dose that each compound reached maximum chondrogenesis activity is reported.

For the next experiment, the system named is IL-6. Nature of the experiment: IL-6 inhibition in LPS-stimulated THP-1 monocytes (HTRF). In kind it is cell-based, human. The following applies: Homo sapiens, THP-1 cells; for EC50: 500 ng/mL LPS, 22 h, HTRF IL-6 readout, 10-point dose-response from 10 μM; for inhibition at 10 µM: LPS stimulated, given only where EC50 >10 μM, top concentration 10 μM, read-out: percentage in parentheses beside EC50 >10 (IL-6 inhibition). An outline of the steps:
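THP-1 cells serum-reduced (1% FBS, 24 h), then 5000 cells/well preincubated 2 h with compound (10-point 1:3 series from 10 μM, 0.1% DMSO) before 500 ng/mL LPS for 22 h at 37 °C. Secreted IL-6 quantified by HTRF 665/620 ratio; DMSO-normalised duplicates fitted to four-parameter EC50; above 10 μM, % inhibition at 10 μM given.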
(In TR-FRET formats the signal depends on donor and acceptor labels being close together.)

Consider `CN(C)CCNc1cc(F)cc(-c2cccc3[nH]c(-c4n[nH]c5ncc(-c6cncc(CN7CCCCC7)c6)cc45)cc23)c1` [Compound 437, N^1-(3-Fluoro-5-(2-(5-(5-(piperidin-1-ylmethyl)pyridin-3-yl)-1H-pyrazolo[3,4-b]pyridin-3-yl)-1H-indol-4-yl)phenyl)-N^2,N^2-dimethylethane-1,2-diamine], for which, in experiment [1], the Emax turned out to be 175% and the EC50 was determined as 900 nM. In addition, in the experiment with IL-6, the EC50 is > 10000 nM and the inhibition – broadly, the share of the control response that was lost under treatment – at 10 µM came out at 43.2%.
In the case of `FC1(F)CCN(Cc2cncc(-c3cnc4[nH]nc(-c5cc6c(-c7ccoc7)cccc6[nH]5)c4c3)c2)C1` [Compound 308, 5-(5-((3,3-Difluoropyrrolidin-1-yl)methyl)pyridin-3-yl)-3-(4-(furan-3-yl)-1H-indol-2-yl)-1H-pyrazolo[3,4-b]pyridine], in experiment [1], the Emax turned out to be 72% and the EC50 is 30 nM. Moreover, the EC50 in the experiment on IL-6 was determined as 7150 nM.
Regarding `CCNCc1cncc(-c2cnc3[nH]nc(-c4cc5c(N6CCCCC6)cccc5[nH]4)c3c2)c1` [Compound 150, N-((5-(3-(4-(Piperidin-1-yl)-1H-indol-2-yl)-1H-pyrazolo[3,4-b]pyridin-5-yl)pyridin-3-yl)methyl)ethanamine], in experiment [1], the Emax was 91% and the EC50 amounted to 30 nM. This compound also registered an EC50 with IL-6 of 1460 nM.
In the case of `FC1(F)CCN(Cc2cncc(-c3cnc4[nH]nc(-c5cc6c(-c7ccncc7)cccc6[nH]5)c4c3)c2)C1` [Compound 118, 5-(5-((3,3-Difluoropyrrolidin-1-yl)methyl)pyridin-3-yl)-3-(4-(pyridin-4-yl)-1H-indol-2-yl)-1H-pyrazolo[3,4-b]pyridine], the Emax in experiment [1] amounted to 29%. The compound also returned an EC50 with IL-6 of 607 nM.
For the compound `CCNCc1cncc(-c2cnc3[nH]nc(-c4cc5c(-c6ccccc6F)cccc5[nH]4)c3c2)c1` [Compound 52, N-((5-(3-(4-(2-Fluorophenyl)-1H-indol-2-yl)-1H-pyrazolo[3,4-b]pyridin-5-yl)pyridin-3-yl)methyl)ethanamine], the Emax in experiment [1] was 64%. The compound also had an EC50 in the experiment on IL-6 of 2690 nM.
As for `CN(C)CCOc1cncc(-c2cnc3[nH]nc(-c4cc5c(-c6cccnc6)cccc5[nH]4)c3c2)c1` [Compound 565, N,N-Dimethyl-2-((5-(3-(4-(pyridin-3-yl)-1H-indol-2-yl)-1H-pyrazolo[3,4-b]pyridin-5-yl)pyridin-3-yl)oxy)ethan-1-amine], the Emax in experiment [1] came out at 46%. In the experiment with IL-6, this compound showed an EC50 of 1980 nM.
`CCCCC(=O)Nc1cncc(-c2cnc3[nH]nc(-c4cc5c(-c6ccccn6)cccc5[nH]4)c3c2)c1` [Compound 136, N-(5-(3-(4-(Pyridin-2-yl)-1H-indol-2-yl)-1H-pyrazolo[3,4-b]pyridin-5-yl)pyridin-3-yl)pentanamide]: the Emax in experiment [1] came to 41%. The EC50 in the experiment with IL-6 was found to be 1890 nM.
Take `CN(C)c1cncc(-c2cnc3[nH]nc(-c4cc5c(-c6cccc(F)c6)cccc5[nH]4)c3c2)c1` [Compound 5, 5-(3-(4-(3-Fluorophenyl)-1H-indol-2-yl)-1H-pyrazolo[3,4-b]pyridin-5-yl)-N,N-dimethylpyridin-3-amine]: the Emax in experiment [1] came to 49%. Also, the EC50 in the experiment on IL-6 is 899 nM.
Consider `Cc1ncc(-c2cnc3[nH]nc(-c4cc5ccccc5[nH]4)c3c2)n1C` [Compound 655, 5-(1,2-Dimethyl-1H-imidazol-5-yl)-3-(1H-indol-2-yl)-1H-pyrazolo[3,4-b]pyridine], for which, in experiment [1], the Emax is 47%. The compound also showed an EC50 with IL-6 of 4350 nM.
In the case of `c1ccc(CNCc2cncc(-c3cnc4[nH]nc(-c5cc6c(-c7ccncc7)cccc6[nH]5)c4c3)c2)cc1` [Compound 116, N-Benzyl-1-(5-(3-(4-(pyridin-4-yl)-1H-indol-2-yl)-1H-pyrazolo[3,4-b]pyridin-5-yl)pyridin-3-yl)methanamine], in the experiment on IL-6, the EC50 is > 10000 nM and the inhibition at 10 µM was 41.7%.
`Cc1ccncc1-c1cnc2[nH]nc(-c3cc4c(-c5ccc(F)cc5)cccc4[nH]3)c2c1` [Compound 27, 3-(4-(4-Fluorophenyl)-1H-indol-2-yl)-5-(4-methylpyridin-3-yl)-1H-pyrazolo[3,4-b]pyridine]: in the experiment with IL-6, the EC50 is > 10000 nM and the inhibition at 10 µM was 41.7%.
As to `CCCCC(=O)Nc1cncc(-c2cnc3[nH]nc(-c4cc5c(N6CCCCC6)cccc5[nH]4)c3c2)c1` [Compound 163, N-(5-(3-(4-(Piperidin-1-yl)-1H-indol-2-yl)-1H-pyrazolo[3,4-b]pyridin-5-yl)pyridin-3-yl)pentanamide], in the experiment with IL-6, the EC50 is > 10000 nM and the inhibition at 10 µM is 43.2%.
As for `c1ccc(COc2cncc(-c3cnc4[nH]nc(-c5cc6ncccc6[nH]5)c4c3)c2)cc1` [Compound 1006, 5-(5-(Benzyloxy)pyridin-3-yl)-3-(1H-pyrrolo[3,2-b]pyridin-2-yl)-1H-pyrazolo[3,4-b]pyridine], the EC50 in the experiment on IL-6 turned out to be 168 nM.
With `O=C(Nc1cncc(-c2cnc3[nH]nc(-c4cc5c(-c6ccc(F)cc6)cccc5[nH]4)c3c2)c1)C1CCC1` [Compound 41, N-(5-(3-(4-(4-Fluorophenyl)-1H-indol-2-yl)-1H-pyrazolo[3,4-b]pyridin-5-yl)pyridin-3-yl)cyclobutanecarboxamide], in the experiment on IL-6, the EC50 was > 10000 nM and the inhibition at 10 µM is 10.7%.
On to `CC(C)(C)C(=O)Nc1cncc(-c2cnc3[nH]nc(-c4cc5c(-c6ccc(F)cc6)cccc5[nH]4)c3c2)c1` [Compound 30, N-(5-(3-(4-(4-Fluorophenyl)-1H-indol-2-yl)-1H-pyrazolo[3,4-b]pyridin-5-yl)pyridin-3-yl)pivalamide], for which, in the experiment with IL-6, the EC50 was > 10000 nM and the inhibition at 10 µM is 42.8%.
Turning to `CC(C)(C)C(=O)Nc1cncc(-c2cnc3[nH]nc(-c4cc5c(-c6ccoc6)cccc5[nH]4)c3c2)c1` [Compound 290, N-(5-(3-(4-(Furan-3-yl)-1H-indol-2-yl)-1H-pyrazolo[3,4-b]pyridin-5-yl)pyridin-3-yl)pivalamide], in the experiment on IL-6, the EC50 was > 10000 nM and the inhibition at 10 µM was determined as 31.2%.
As for `CC(C)(C)CC(=O)Nc1cncc(-c2cnc3[nH]nc(-c4cc5ccccc5[nH]4)c3c2)c1` [Compound 242, N-(5-(3-(1H-Indol-2-yl)-1H-pyrazolo[3,4-b]pyridin-5-yl)pyridin-3-yl)-3,3-dimethylbutanamide], the EC50 in the experiment on IL-6 was 303 nM.
`Cc1ccncc1-c1cnc2[nH]nc(-c3cc4c(-c5ccncc5)cccc4[nH]3)c2c1` [Compound 99, 5-(4-Methylpyridin-3-yl)-3-(4-(pyridin-4-yl)-1H-indol-2-yl)-1H-pyrazolo[3,4-b]pyridine] yielded an EC50 in the experiment with IL-6 of 62 nM.
The same measure, in the same setting: the result for `CS(=O)(=O)NCc1cc(F)cc(-c2cccc3[nH]c(-c4n[nH]c5ncc(-c6ccccn6)cc45)cc23)c1` [Compound 478, N-(3-Fluoro-5-(2-(5-(pyridin-2-yl)-1H-pyrazolo[3,4-b]pyridin-3-yl)-1H-indol-4-yl)benzyl)methanesulfonamide] reads 690 nM.
For the compound `O=C(Nc1cncc(-c2cnc3[nH]nc(-c4cc5c(N6CCCCC6)cccc5[nH]4)c3c2)c1)c1ccccc1` [Compound 155, N-(5-(3-(4-(Piperidin-1-yl)-1H-indol-2-yl)-1H-pyrazolo[3,4-b]pyridin-5-yl)pyridin-3-yl)benzamide], in the experiment on IL-6, the EC50 was > 10000 nM and the inhibition at 10 µM was 21.8%.
